The values that follow come from ChEMBL document CHEMBL1125556, “Fluoroquinolones: relationships between structural variations, mammalian cell cytotoxicity, and antimicrobial activity” (J Med Chem, 1992).

Experiment [1] in a line: Antibacterial activity against five Gram-negative bacteria. It counts as functional.
The subject of experiment [2] is V79. Description: Mammalian cell cytotoxicity test in chinese hamster V79 cells (clonogenic cytotoxicity). In kind it is functional, cell-based.
[3] abbreviates: Cricetulus griseus, V79, read-out: IC50.

Values after ≈ are worked out from the molar mass of the structure shown.

Consider `NC1CCCN(c2c(F)cc3c(=O)c(C(=O)O)cn(C4CC4)c3c2F)C1` (stereo not drawn), for which, in experiment [1] (read-out: MIC), the minimal inhibitory concentration (MIC) (usually the lowest concentration that inhibits growth of the organism) was found to be 0.13 µg/mL (≈ 0.358 µM). Further, the concentration for half-maximal inhibition (IC50) (in general, the concentration that inhibits the measured activity by half) in experiment [2] (setting [3]) stood at 53 µg/mL (≈ 146 µM).
On the same counts, the results for `NC1CCN(c2c(F)cc3c(=O)c(C(=O)O)cn(C4CC4)c3c2[N+](=O)[O-])C1` (stereo not drawn) are 0.46 µg/mL (≈ 1.22 µM) and 69 µg/mL (≈ 183 µM).
On the same counts, the results for `CC1(N)CCN(c2c(F)cc3c(=O)c(C(=O)O)cn(C4CC4)c3c2C(F)(F)F)C1` (stereo not drawn) are 1 µg/mL (≈ 2.42 µM) and 110 µg/mL (≈ 266 µM).
In the case of `NC1CCN(c2nc3c(cc2F)c(=O)c(C(=O)O)cn3C2CC2)CC1`, the minimum inhibitory concentration (MIC) in experiment [1] (read-out: MIC) stood at 0.23 µg/mL (≈ 0.664 µM). For the same compound, the concentration for half-maximal inhibition (IC50) in experiment [2] (setting [3]) was 100 µg/mL (≈ 289 µM).
As for `C=Cn1cc(C(=O)O)c(=O)c2cc(F)c(N3CCC(N)C3)c(F)c21` (stereo not drawn), the MIC in experiment [1] (read-out: MIC) was found to be 0.13 µg/mL (≈ 0.388 µM). For the same compound, the IC50 in experiment [2] (setting [3]) was 310 µg/mL (≈ 925 µM).
On the same counts, the results for `NCC1CCN(c2nc3c(cc2F)c(=O)c(C(=O)O)cn3C2CC2)C1` (stereo not drawn) are 0.14 µg/mL (≈ 0.404 µM) and 51 µg/mL (≈ 147 µM).
On the same counts, the results for `CC1CN(c2c(F)cc3c(=O)c(C(=O)O)cn(C4CC4)c3c2Cl)CCN1` (stereo not drawn) are 0.08 µg/mL (≈ 0.211 µM) and 45 µg/mL (≈ 118 µM).
For the compound `CCNCC1CCN(c2c(F)cc3c(=O)c(C(=O)O)cn(C4CC4)c3c2C(F)(F)F)C1` (stereo not drawn), the minimum inhibitory concentration (MIC) in experiment [1] (read-out: MIC) was 0.6 µg/mL (≈ 1.36 µM). Further, in experiment [2] (setting [3]), the IC50 was 120 µg/mL (≈ 272 µM).
On the same counts, the results for `CC1CN(c2c(F)cc3c(=O)c(C(=O)O)cn(-c4ccc(F)cc4F)c3c2Cl)CCN1` (stereo not drawn) are 2.07 µg/mL (≈ 4.58 µM) and > 500 µg/mL.
On the same counts, the results for `CC1CN(c2nc3c(cc2F)c(=O)c(C(=O)O)cn3C2CC2)CC(C)N1` (stereo not drawn) are 0.17 µg/mL (≈ 0.472 µM) and 250 µg/mL (≈ 694 µM).
On the same counts, the results for `CCNCC1CCN(c2c(F)cc3c(=O)c(C(=O)O)cn(CCO)c3c2F)C1` (stereo not drawn) are 50 µg/mL (≈ 126 µM) and > 500 µg/mL.
In the case of `CC1CN(c2c(F)cc3c(=O)c(C(=O)O)cn(C4CC4)c3c2C(F)(F)F)CCN1` (stereo not drawn), the minimal inhibitory concentration (MIC) in experiment [1] (read-out: MIC) was determined as 0.6 µg/mL (≈ 1.45 µM). Besides, the IC50 in experiment [2] (setting [3]) came out at 220 µg/mL (≈ 532 µM).
On the same counts, the results for `CCNCC1CCN(c2c(F)cc3c(=O)c(C(=O)O)cn(C4CC4)c3c2N)C1` (stereo not drawn) are 0.91 µg/mL (≈ 2.34 µM) and 290 µg/mL (≈ 747 µM).
On the same counts, the results for `COc1c(N2CCC(C)(N)C2)c(F)cc2c(=O)c(C(=O)O)cn(-c3ccc(F)cc3F)c12` (stereo not drawn) are 0.46 µg/mL (≈ 1.03 µM) and 250 µg/mL (≈ 559 µM).
With `CC1(CN)CCN(c2c(F)cc3c(=O)c(C(=O)O)cn(C4CC4)c3c2F)C1` (stereo not drawn), the MIC in experiment [1] (read-out: MIC) is 0.13 µg/mL (≈ 0.344 µM). Moreover, the IC50 in experiment [2] (setting [3]) was 8 µg/mL (≈ 21.2 µM).
On the same counts, the results for `CCNCC1CCN(c2c(F)cc3c(=O)c(C(=O)O)cn(C4CC4)c3c2F)C1` (stereo in doubt; 12) [PD-117558] are 0.05 µg/mL (≈ 0.128 µM) and 11 µg/mL (≈ 28.1 µM).
For the compound `CCNCC1CCN(c2cc3c(cc2F)c(=O)c(C(=O)O)cn3-c2ccc(F)cc2F)C1` (stereo in doubt; 17), the MIC in experiment [1] worked out at 0.8 µg/mL (≈ 1.8 µM). This compound also returned an IC50 in experiment [2] (v79) of 190 µg/mL (≈ 427 µM).
Consider `NC1CCN(c2c(F)cc3c(=O)c(C(=O)O)cn(C4CC4)c3c2F)C1` (stereo in doubt; 21), for which the MIC in experiment [1] (read-out: MIC) came to 0.04 µg/mL (≈ 0.115 µM). For the same compound, the IC50 in experiment [2] (setting [3]) amounted to 30 µg/mL (≈ 85.9 µM).
On the same counts, the results for `NC1CCN(c2cc3c(cc2F)c(=O)c(C(=O)O)cn3C2CC2)C1` (stereo in doubt; 24a) are 0.09 µg/mL (≈ 0.272 µM) and 72 µg/mL (≈ 217 µM).
In experiment [1], `NC1CCN(c2c(F)cc3c(=O)c(C(=O)O)cn(C4CC4)c3c2F)C1` (stereo in doubt; 24b) displayed an MIC of 0.04 µg/mL (≈ 0.115 µM). This compound gave a half-maximal inhibitory concentration (IC50) in experiment [2] (v79) of 30 µg/mL (≈ 85.9 µM).
In the case of `NC1CCN(c2c(F)cc3c(=O)c(C(=O)O)cn(C4CC4)c3c2Cl)C1` (stereo in doubt; 24c) [CLINAFLOXACIN], in experiment [1] (read-out: MIC), the MIC was 0.03 µg/mL (≈ 0.082 µM). For the same compound, the IC50 in experiment [2] (setting [3]) stood at 26 µg/mL (≈ 71.1 µM).
On to `COc1c(N2CCC(N)C2)c(F)cc2c(=O)c(C(=O)O)cn(C3CC3)c12` (stereo in doubt; 24d), for which the MIC in experiment [1] (read-out: MIC) came to 0.07 µg/mL (≈ 0.194 µM). Moreover, the IC50 in experiment [2] (v79) is 45 µg/mL (≈ 125 µM).
On to `NC1CCN(c2c(F)cc3c(=O)c(C(=O)O)cn(C4CC4)c3c2C(F)(F)F)C1` (stereo in doubt; 24e), for which the minimum inhibitory concentration (MIC) in experiment [1] came to 0.2 µg/mL (≈ 0.501 µM). This compound registered a half-inhibitory concentration (IC50) in experiment [2] (v79) of 300 µg/mL (≈ 751 µM).
As to `CCNCC1CCN(c2cc3c(cc2F)c(=O)c(C(=O)O)cn3C2CC2)C1` (stereo in doubt; 26a), the MIC in experiment [1] (read-out: MIC) is 0.46 µg/mL (≈ 1.23 µM). In addition, the IC50 in experiment [2] (setting [3]) was 160 µg/mL (≈ 428 µM).
For the compound `CCNCC1CCN(c2c(F)cc3c(=O)c(C(=O)O)cn(C4CC4)c3c2Cl)C1` (stereo in doubt; 26c), the minimal inhibitory concentration (MIC) in experiment [1] (read-out: MIC) came to 0.14 µg/mL (≈ 0.343 µM). Also, in experiment [2] (v79), the concentration for half-maximal inhibition (IC50) is 11 µg/mL (≈ 27 µM).
As to `CCNCC1CCN(c2c(F)cc3c(=O)c(C(=O)O)cn(C4CC4)c3c2OC)C1` (stereo in doubt; 26d), in experiment [1] (read-out: MIC), the MIC was determined as 0.26 µg/mL (≈ 0.644 µM). The 50% inhibitory concentration (IC50) in experiment [2] (setting [3]) was 22 µg/mL (≈ 54.5 µM).
On the same counts, the results for `CCNCC1CCN(c2cc3c(cc2F)c(=O)c(C(=O)O)cn3-c2ccc(F)cc2F)C1` (stereo in doubt; 36b) are 0.8 µg/mL (≈ 1.8 µM) and 190 µg/mL (≈ 427 µM).
With `NC1CCN(c2cc3c(cc2F)c(=O)c(C(=O)O)cn3C2CC2)C1` (stereo in doubt; 44), the minimum inhibitory concentration (MIC) in experiment [1] stood at 0.09 µg/mL (≈ 0.272 µM). In addition, the IC50 in experiment [2] (v79) was 72 µg/mL (≈ 217 µM).
For `NC1CCN(c2c(F)cc3c(=O)c(C(=O)O)cn(C4CC4)c3c2C(F)(F)F)C1` (stereo in doubt; 45), the minimum inhibitory concentration (MIC) in experiment [1] (read-out: MIC) is 0.2 µg/mL (≈ 0.501 µM). Besides, the half-maximal inhibitory concentration (IC50) in experiment [2] (setting [3]) came out at 300 µg/mL (≈ 751 µM).
`NC1CCN(c2c(F)cc3c(=O)c(C(=O)O)cn(C4CC4)c3c2Cl)C1` (stereo in doubt; 46) [CLINAFLOXACIN] gave a minimal inhibitory concentration (MIC) in experiment [1] of 0.03 µg/mL (≈ 0.082 µM). The compound also had an IC50 in experiment [2] (v79) of 26 µg/mL (≈ 71.1 µM).
On the same counts, the results for `COc1c(N2CCC(N)C2)c(F)cc2c(=O)c(C(=O)O)cn(C3CC3)c12` (stereo in doubt; 47) are 0.07 µg/mL (≈ 0.194 µM) and 44 µg/mL (≈ 122 µM).
Consider `CCNCC1CCN(c2c(F)cc3c(=O)c(C(=O)O)cn(C4CC4)c3c2OC)C1` (stereo in doubt; 68), for which, in experiment [1], the minimal inhibitory concentration (MIC) came out at 0.26 µg/mL (≈ 0.644 µM). The compound also displayed an IC50 in experiment [2] (v79) of 22 µg/mL (≈ 54.5 µM).
For the compound `O=C(O)c1cn(C2CC2)c2cc(N3CCNCC3)c(F)cc2c1=O` [CIPROFLOXACIN], the MIC in experiment [1] and in experiment [1] (read-out: MIC) was 0.1 µg/mL (≈ 0.302 µM) each time. The IC50 in experiment [2] (setting [3]) and in experiment [2] (v79) was 380 µg/mL (≈ 1150 µM) throughout.
For the compound `CN1CCN(c2c(F)cc3c(=O)c(C(=O)O)cn(CCF)c3c2F)CC1` [FLEROXACIN], in experiment [1] (read-out: MIC), the MIC stood at 0.35 µg/mL (≈ 0.948 µM). The IC50 in experiment [2] (setting [3]) is > 500 µg/mL.
On the same counts, the results for `CCNCC1CCN(c2c(F)cc3c(=O)c(C(=O)O)cn(CC)c3c2F)C1` (stereo not drawn) [MERAFLOXACIN] are 0.2 µg/mL (≈ 0.527 µM) and 160 µg/mL (≈ 422 µM).
For the compound `CCn1cc(C(=O)O)c(=O)c2cc(F)c(N3CCNCC3)cc21` [NORFLOXACIN], the minimal inhibitory concentration (MIC) in experiment [1] (read-out: MIC) was determined as 0.06 µg/mL (≈ 0.188 µM). In addition, the IC50 in experiment [2] (setting [3]) is > 500 µg/mL.
On the same counts, the results for `CC1COc2c(N3CCN(C)CC3)c(F)cc3c(=O)c(C(=O)O)cn1c23` (stereo not drawn) [OFLOXACIN] are 0.2 µg/mL (≈ 0.553 µM) and > 500 µg/mL.
With `NC1CCN(c2nc3c(cc2F)c(=O)c(C(=O)O)cn3-c2ccc(F)cc2F)C1` (stereo not drawn) [TOSUFLOXACIN], in experiment [1] (read-out: MIC), the minimum inhibitory concentration (MIC) was 0.09 µg/mL (≈ 0.223 µM). Besides, the IC50 in experiment [2] (setting [3]) was found to be 128 µg/mL (≈ 317 µM).
